Legend:
[1] = tested on: myogenin; assay: myogenin mRNA expression by RT-PCR in L6 muscle cells; format: cell-based; conditions: 6 days
Experimental: (§1) Muscle cells, L6 myoblasts (ATCC) were added to a 6-well plate at 2×10^5 cells/ml together with DMEM (Hyclone) containing 10% FBS (Hyclone). When the cell density reached about 80 to 85%, the medium in the wells was removed. […] Meanwhile, a group treated with 0.01% DMSO instead of the sample was used as a control group. This procedure was carried out for 6 days in two days to differentiate and total RNA was isolated using TRIzol reagent (Invitrogen. Carlsbad, Calif., USA). The isolated total RNA was quantified using NanoDrop 1000 (Thermo Fisher Scientific Inc., MA, USA). Quantified 16 μL of RNA was synthesized into cDNA using Reverse Transcriptase Premix (ELPIS-Biotech) and PCR machine (Gene Amp PCR System 2700: Applied Biosystems, MA, USA) at 42° C. for 55 minutes and 70° C. for 15 minutes. 4 μL out of 16 μL cDNA was amplified by PCR using the following specific primers (Bioneer, Daejeon, Republic of Korea) and PCR premix (ELPIS-Biotech). PCR was performed by repeating 30 cycles of 95° C. for 30 seconds, 60° C. for 1 minute, and 72° C. for 1 minute.
(§2) PCR-amplified cDNA was separated by electrophoresis on 1.5% agarose gel and cDNA band was identified using G:BOX EF imaging system (Syngene).
(§3) L6 myoblast (ATCC) were cultured in the same manner as in Example 7. […]

[2] = tested on: MyoD; assay: MyoD mRNA expression by RT-PCR in L6 muscle cells; format: cell-based; conditions: 6 days
Experimental: as §1, §2, §3

[3] = tested on: p-p70S6K; assay: p-p70S6K protein expression by western blot in L6 muscle cells; format: cell-based
Experimental: (§4) L6 myoblasts (ATCC, Manassas, Va., USA) were added to a 6-well plate with Dulbecco's modified Eagle's Media (DMEM; Hyclone) containing 10% fetal bovine serum (FBS; Hyclone, Logan, Utah, USA) at a concentration of 2×10^5 cells/mL. When the cell density reached about 80 to 85%, the medium in the wells was removed. […] Meanwhile, a group treated with 0.01% DMSO instead of the sample was used as a control group. This procedure was carried out for 6 days in two days to differentiate and then dissolved in NP-40 buffer solution (ELPIS-Biotech, Daejeon, Republic of Korea) containing proteinase inhibitor cocktail. The cells dissolved in the buffer solution were transferred to a 1.5-mL tube and centrifuged at 13,000 rpm for 10 minutes to take only a supernatant. The supernatant was quantified using Bradford (Bio-Rad Laboratories Inc., Hercules, Calif., USA). The quantified proteins were boiled for 5 minutes, separated by electrophoresis on 10% SDS-PAGE, and were transferred to the nitrocellulose membrane. A p-mTOR primary antibody (Cellular signaling technology, Beverly, Mass., USA) was diluted with 2.5% bovine serum albumin (BSA) at a ratio of 1:1000 and reacted with proteins transferred to the nitrocellulose membrane for 20 hours at room temperature. […]

[4] = tested on: atrogin-1; assay: atrogin-1 mRNA expression by RT-PCR in TNF-α-treated L6 muscle cells; format: cell-based; conditions: differentiated L6 muscle cells, 50 ng/mL TNF-α
Experimental: (§5) L6 myoblast (ATCC) was added to a 6-well plate at 2×10^5 cells/ml together with DMEM (Hyclone) containing 10% FBS (Hyclone). When the cell density reached about 80% to 85%, the medium in the wells was removed and myotube differentiation was induced by treating the cells with DMEM (Hyclone) containing 2% HS (Hyclone). The medium was replaced with fresh medium every two days and the differentiation was carried out for a total of 6 days. After differentiation, 0.1 μM and 1 μM of morusin prepared in Example 2-1 were respectively dissolved in DMEM (Hyclone) containing 50 ng/mL tumor necrosis factor alph (TNF-α; PeproTech, Rocky Hills, N.J., USA), followed by their treatment on the cells. After 6 hours, total RNA was isolated using TRIzol reagent (Invitrogen). The isolated total RNA was quantified using NanoDrop 1000 (Thermo Fisher Scientific Inc.). The quantified 16 μL of RNA was synthesized into cDNA using Reverse Transcriptase Premix (ELPIS-Biotech) and PCR machine (Gene Amp PCR System 2700: Applied Biosystems) at 42° C. for 55 minutes and at 70° C. for 15 minutes. The PCR was performed by repeating 30 cycles at 95° C. for 30 seconds, at 60° C. for 1 minute and at 72° C. for 1 minute with 4 μl of 16 μl cDNA, the following specific primers (Bioneer), and PCR premix (ELPIS-Biotech): […]

[5] = tested on: Wistar rats; assay: Muscle mass in TNF-α-induced muscular atrophy animal model; format: in vivo; conditions: for increase in weight of muscle: 300 mg/kg body weight, 8 weeks, vs control group, p<0.01; for Average calf muscle weight: TNF-α-induced atrophy, 300 mg/kg body weight once a day for 8 weeks, right calf
Experimental: Five-week-old Wistar rats were adapted for 1 week and 100 ng/g of TNF-α was supplied for 2 weeks to induce muscular atrophy. Then, groups were randomly assigned on the basis of body weight and divided into five groups of 8 rats per each group. 500 mg/kg body weight of the ethanol extract of Mori Cortex Radicis prepared in Example 1-2, 500 mg/kg body weight of the hot-water extract of Mori Cortex Radicis prepared in Example 1-5, 300 mg/kg body weight of the morusin prepared in Example 2-1, and 300 mg/kg body weight of the kuwanon G prepared in Example 2-2 were suspended in 0.25% carboxymethylcellulose, respectively, followed by their administration on experimental groups once a day for 8 weeks at regular time. A control group was administered with TNF-α suspended in the same amount of 0.25% carboxymethyl cellulose ingested by the experimental groups.
After 8 weeks of administration, the muscles under the right calf were excised and weighed with microbalance (Mettler PE 160, USA).

[6] = tested on: MuRF-1; assay: MuRF-1 mRNA expression by RT-PCR in TNF-α-treated L6 muscle cells; format: cell-based; conditions: differentiated L6 muscle cells, 50 ng/mL TNF-α
Experimental: as §5

[7] = tested on: p-4EBP1; assay: p-4EBP1 protein expression by western blot in L6 muscle cells; format: cell-based
Experimental: as §4

[8] = tested on: p-mTOR; assay: p-mTOR protein expression by western blot in L6 muscle cells; format: cell-based; conditions: 5 μM, differentiation 6 days, vs 0.01% DMSO control
Experimental: L6 myoblasts (ATCC, Manassas, Va., USA) were added to a 6-well plate with Dulbecco's modified Eagle's Media (DMEM; Hyclone) containing 10% fetal bovine serum (FBS; Hyclone, Logan, Utah, USA) at a concentration of 2×10^5 cells/mL. When the cell density reached about 80 to 85%, the medium in the wells was removed. The ethanol extract of Mori Cortex Radicis (20 μg/mL) prepared in Example 1-2, the hot water extract of Mori Cortex Radicis (20 μg/mL) prepared in Example 1-5, the morusin (5 μM) and the kuwanon G (5 μM) isolated and purified in Example 2 were dissolved in DMEM (Hyclone) containing 2% HS (Hyclone), followed by its treatment to the cells to induce myotube differentiation. Meanwhile, a group treated with 0.01% DMSO instead of the sample was used as a control group. This procedure was carried out for 6 days in two days to differentiate and then dissolved in NP-40 buffer solution (ELPIS-Biotech, Daejeon, Republic of Korea) containing proteinase inhibitor cocktail. The cells dissolved in the buffer solution were transferred to a 1.5-mL tube and centrifuged at 13,000 rpm for 10 minutes to take only a supernatant. The supernatant was quantified using Bradford (Bio-Rad Laboratories Inc., Hercules, Calif., USA). The quantified proteins were boiled for 5 minutes, separated by electrophoresis on 10% SDS-PAGE, and were transferred to the nitrocellulose membrane. […]

Row | Structure (SMILES) | expression of myogenin mRNA ([1]; 1 μM and 5 μM) | expression of MyoD mRNA ([2]; 1 μM and 5 μM) | expression of p-p70S6K protein ([3]; 1 μM and 5 μM) | mRNA expression of atrogin-1 ([4]; concentration not given) | increase in weight of muscle [5] [%] | Average calf muscle weight [5] [mg] | mRNA expression of MuRF-1 ([6]; concentration not given) | expression of p-4EBP1 protein ([7]; 1 μM and 5 μM) | expression of p-mTOR [8] | expression of myogenin mRNA ([1]; 0.1 and 1 μM) | expression of MyoD mRNA ([2]; 0.1 and 1 μM) | expression of p-p70S6K protein ([3]; 0.1 and 1 μM) | mRNA expression of atrogin-1 ([4]; 0.1 μM and 1 μM, 6 hours) | mRNA expression of MuRF-1 ([6]; 0.1 μM and 1 μM, 6 hours) | expression of p-4EBP1 protein ([7]; 0.1 and 1 μM)
1 | CC(C)=CCc1c(-c2ccc(O)cc2O)oc2c([C@H]3C=C(C)C[C@@H](c4ccc(O)cc4O)[C@@H]3C(=O)c3ccc(O)cc3O)c(O)cc(O)c2c1=O [Kuwanon G, 8-[(1S,5R,6S)-6-(2,4-Dihydroxybenzoyl)-5-(2,4-dihydroxyphenyl)-3-methyl-2-cyclohexen-1-yl]-2-(2,4-dihydroxyphenyl)-5,7-dihydroxy-3-(3-methyl-2-buten-1-yl)-4H-chromen-4-one] | increased | increased | increased | decreased | 22.60 | 537 ± 15.2 | decreased | increased | increased | – | – | – | – | – | –
2 | CC(C)=CCc1c(-c2ccc(O)cc2O)oc2c3c(cc(O)c2c1=O)OC(C)(C)C=C3 [Morusin, 2-(2,4-Dihydroxyphenyl)-5-hydroxy-8,8-dimethyl-3-(3-methyl-2-buten-1-yl)-4H,8H-benzo[1,2-b:3,4-b′]dipyran-4-one] | – | – | – | – | 23.97 | 543 ± 32.9 | – | – | increased | increased | increased | increased | decreased | decreased | increased

— US10576057B2, “Methods for treating muscle wasting and degeneration diseases” (NEWTREE CO., LTD., priority 2015, dated 2020)
